Measured values: US20250163104A1, “MACROCYCLIC IMMUNOMODULATORS” (priority 2021, published 2025)
Where a SMILES comes first, the peptide text is derived from it. Bridges are numbered along the chain shown (N, C = ends). [ ]: non-standard residue; d: D form. The star is where a group is joined. Phe(4-COOH) = N[C@@H](Cc1ccc(C(=O)O)cc1)C(=O)O; Bip = N[C@@H](Cc1ccc(-c2ccccc2)cc1)C(=O)O; Phe(3-Me) = Cc1cccc(C[C@H](N)C(=O)O)c1; 4Pal = N[C@@H](Cc1ccncc1)C(=O)O; Cha = N[C@@H](CC1CCCCC1)C(=O)O; Carboxymethyl = O=C(O)C*; Orn = NCCC[C@H](N)C(=O)O; Pra = C#CC[C@H](N)C(=O)O; Dab = NCC[C@H](N)C(=O)O; Nva = CCC[C@H](N)C(=O)O; Dap = NC[C@H](N)C(=O)O; Propargyl = C#CC*

Target: T1, human PD-1 / PD-L1-Ig binding on Jurkat cell line over-expressing human PD-1 (Jurkat-PD-1) (Homo sapiens, UniProt Q15116)
T1 construct: expressed in transfected cells; host or cells: Jurkat
T1 sequence (Q15116 25-288): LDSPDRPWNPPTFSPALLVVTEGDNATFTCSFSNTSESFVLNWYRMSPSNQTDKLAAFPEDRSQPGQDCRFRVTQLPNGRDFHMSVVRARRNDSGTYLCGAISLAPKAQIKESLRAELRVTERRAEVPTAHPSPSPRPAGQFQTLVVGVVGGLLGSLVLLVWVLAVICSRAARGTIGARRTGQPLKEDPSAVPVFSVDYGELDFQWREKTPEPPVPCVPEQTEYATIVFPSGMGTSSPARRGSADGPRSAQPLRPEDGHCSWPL
Experiment: Jurkat-PD-1 Cell Binding High-Content Screening Assay (CBA)
Assay type: cell-based
Conditions: Jurkat-PD-1 cells, PE-labeled PD-L1-Ig 20 nM final; read-out: Jurkat HPD1_PDL1 IC50
Method in brief: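 Jurkat-hPD-1 cells in DMEM with 10% fetal calf serum receive test compound and are held at 37° C for 2 h. PE-labeled PD-L1-Ig is added at 20 nM final and left for 1 hour. Cells are then fixed and Hoechst-stained, and binding is measured by imaging.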

SMILES | IC50
C#CCOc1ccc(C[C@@H]2NC(=O)[C@H](C(C)C)NC(=O)[C@H](CC3CCCCC3)NC(=O)[C@H](CCN)NC(=O)[C@@H](CC(C)C)NC(=O)[C@H](CCCN)NC(=O)[C@H](Cc3ccc(OCC(=O)O)cc3)NC(=O)[C@H](Cc3ccc(-c4ccccc4)cc3)NC(=O)[C@H](Cc3ccc(OCC(=O)O)cc3)NC(=O)[C@H](Cc3cccc(C)c3)NC(=O)[C@H](CC(=O)O)NC(=O)[C@H](Cc3ccc(OCC(=O)O)cc3)NC(=O)[C@H](CCN)NC(=O)CSC[C@@H](C(=O)N[C@@H](CCN)C(N)=O)NC2=O)cc1 [Compound 1814] ({CH2CO}-[Dab]Y(Carboxymethyl)D[Phe(3-Me)]Y(Carboxymethyl)[Bip]Y(Carboxymethyl)[Orn][dL][Dab][Cha]VY(Propargyl)C[Dab]-NH2; thioether N-14) | 23 nM
C#CCOc1ccc(C[C@@H]2NC(=O)[C@H](CCCNC(=N)N)NC(=O)CSC[C@@H](C(=O)N[C@@H](CCN)C(N)=O)NC(=O)[C@H](CCC(=O)O)NC(=O)[C@H](C(C)C)NC(=O)[C@H](CC3CCCCC3)NC(=O)[C@H](CCN)NC(=O)[C@@H](CC(C)C)NC(=O)[C@H](CCCN)NC(=O)[C@H](Cc3ccc(OCC(=O)O)cc3)NC(=O)[C@H](Cc3ccc(-c4ccccc4)cc3)NC(=O)[C@H](Cc3ccc(OCC(=O)O)cc3)NC(=O)[C@H](Cc3cccc(C)c3)NC(=O)[C@H](CC(=O)O)NC2=O)cc1 [Compound 1815] ({CH2CO}-RY(Propargyl)D[Phe(3-Me)]Y(Carboxymethyl)[Bip]Y(Carboxymethyl)[Orn][dL][Dab][Cha]VEC[Dab]-NH2; thioether N-14) | 22.2 nM
C#CCOc1ccc(C[C@@H]2NC(=O)[C@H](CCN)NC(=O)CSC[C@@H](C(=O)N[C@@H](CCN)C(N)=O)NC(=O)[C@H](CCC(=O)O)NC(=O)[C@H](C(C)C)NC(=O)[C@H](CC3CCCCC3)NC(=O)[C@H](CCN)NC(=O)[C@@H](CC(C)C)NC(=O)[C@H](CCCN)NC(=O)[C@H](Cc3ccc(OCC(=O)O)cc3)NC(=O)[C@H](Cc3ccc(-c4ccccc4)cc3)NC(=O)[C@H](Cc3ccc(OCC(=O)O)cc3)NC(=O)[C@H](Cc3cccc(C)c3)NC(=O)[C@H](CC(=O)O)NC2=O)cc1 [Compound 1820] ({CH2CO}-[Dab]Y(Propargyl)D[Phe(3-Me)]Y(Carboxymethyl)[Bip]Y(Carboxymethyl)[Orn][dL][Dab][Cha]VEC[Dab]-NH2; thioether N-14) | 17.2 nM
C#CCOc1ccc(C[C@@H]2NC(=O)[C@H](C(C)C)NC(=O)[C@H](CC3CCCCC3)NC(=O)[C@H](CCN)NC(=O)[C@@H](CC(C)C)NC(=O)[C@H](CCCN)NC(=O)[C@H](Cc3ccc(OCC(=O)O)cc3)NC(=O)[C@H](Cc3ccc(-c4ccccc4)cc3)NC(=O)[C@H](Cc3ccc(OCC(=O)O)cc3)NC(=O)[C@H](Cc3cccc(C)c3)NC(=O)[C@H](CC(=O)O)NC(=O)[C@H](Cc3ccc(OCC(=O)O)cc3)NC(=O)[C@H](Cc3ccncc3)NC(=O)CSC[C@@H](C(=O)N[C@@H](CCN)C(N)=O)NC2=O)cc1 [Compound 1821] ({CH2CO}-[4Pal]Y(Carboxymethyl)D[Phe(3-Me)]Y(Carboxymethyl)[Bip]Y(Carboxymethyl)[Orn][dL][Dab][Cha]VY(Propargyl)C[Dab]-NH2; thioether N-14) | 191 nM
C#CC[C@H](NC(=O)[C@H](CCN)NC(=O)[C@@H]1CSCC(=O)N[C@@H](CN)C(=O)N[C@@H](Cc2ccc(OCC(=O)O)cc2)C(=O)N[C@@H](CC(=O)O)C(=O)N[C@@H](Cc2cccc(C)c2)C(=O)N[C@@H](Cc2ccc(C(=O)O)cc2)C(=O)N[C@@H](Cc2ccc(-c3ccccc3)cc2)C(=O)N[C@@H](Cc2ccc(C(=O)O)cc2)C(=O)N[C@@H](CCCN)C(=O)N[C@H](CC(C)C)C(=O)N[C@@H](CCN)C(=O)N[C@@H](CC2CCCCC2)C(=O)N[C@@H](C(C)C)C(=O)N[C@@H](CCC(=O)O)C(=O)N1)C(=O)O [Compound 1825] ({CH2CO}-[Dap]Y(Carboxymethyl)D[Phe(3-Me)][Phe(4-COOH)][Bip][Phe(4-COOH)][Orn][dL][Dab][Cha]VEC[Dab][Pra]-OH; thioether N-14) | 182 nM

Stronger by IC50, values ahead:

IC50 | SMILES
11.9 nM | C#CCOc1ccc(C[C@@H]2NC(=O)[C@H](C(C)C)NC(=O)[C@H](CC3CCCCC3)NC(=O)[C@H](CCN)NC(=O)[C@@H](CC(C)C)NC(=O)[C@H](CCCN)NC(=O)[C@H](Cc3ccc(OCC(=O)O)cc3)NC(=O)[C@H](Cc3ccc(-c4ccccc4)cc3)NC(=O)[C@H](Cc3ccc(OCC(=O)O)cc3)NC(=O)[C@H](Cc3cccc(C)c3)NC(=O)[C@H](CC(=O)O)NC(=O)[C@H](Cc3ccc(OCC(=O)O)cc3)NC(=O)[C@H](CN)NC(=O)CSC[C@@H](C(=O)N[C@@H](CCN)C(N)=O)NC2=O)cc1 [Compound 1816] ({CH2CO}-[Dap]Y(Carboxymethyl)D[Phe(3-Me)]Y(Carboxymethyl)[Bip]Y(Carboxymethyl)[Orn][dL][Dab][Cha]VY(Propargyl)C[Dab]-NH2; thioether N-14)
10.1 nM | C#CC[C@H](NC(=O)[C@H](CCN)NC(=O)[C@@H]1CSCC(=O)N[C@@H](CCN)C(=O)N[C@@H](Cc2ccc(OCC(=O)O)cc2)C(=O)N[C@@H](CC(=O)O)C(=O)N[C@@H](Cc2cccc(C)c2)C(=O)N[C@@H](Cc2ccc(C(=O)O)cc2)C(=O)N[C@@H](Cc2ccc(-c3ccccc3)cc2)C(=O)N[C@@H](Cc2ccc(C(=O)O)cc2)C(=O)N[C@@H](CCCN)C(=O)N[C@H](CC(C)C)C(=O)N[C@@H](CCN)C(=O)N[C@@H](CC2CCCCC2)C(=O)N[C@@H](C(C)C)C(=O)N[C@@H](CCC(=O)O)C(=O)N1)C(=O)O [Compound 1823] ({CH2CO}-[Dab]Y(Carboxymethyl)D[Phe(3-Me)][Phe(4-COOH)][Bip][Phe(4-COOH)][Orn][dL][Dab][Cha]VEC[Dab][Pra]-OH; thioether N-14)
9.3 nM | C#CC[C@H](NC(=O)[C@H](CCN)NC(=O)[C@@H]1CSCC(=O)N[C@@H]([C@@H](C)O)C(=O)N[C@@H](Cc2ccc(OCC(=O)O)cc2)C(=O)N[C@@H](CC(=O)O)C(=O)N[C@@H](Cc2cccc(C)c2)C(=O)N[C@@H](Cc2ccc(C(=O)O)cc2)C(=O)N[C@@H](Cc2ccc(-c3ccccc3)cc2)C(=O)N[C@@H](Cc2ccc(C(=O)O)cc2)C(=O)N[C@@H](CCCN)C(=O)N[C@H](CC(C)C)C(=O)N[C@@H](CCN)C(=O)N[C@@H](CC2CCCCC2)C(=O)N[C@@H](C(C)C)C(=O)N[C@@H](CCC(=O)O)C(=O)N1)C(=O)O [Compound 1824] ({CH2CO}-TY(Carboxymethyl)D[Phe(3-Me)][Phe(4-COOH)][Bip][Phe(4-COOH)][Orn][dL][Dab][Cha]VEC[Dab][Pra]-OH; thioether N-14)
5.8 nM | C#CC[C@H](NC(=O)[C@H](CCN)NC(=O)[C@@H]1CSCC(=O)N[C@@H](CCC)C(=O)N[C@@H](Cc2ccc(OCC(=O)O)cc2)C(=O)N[C@@H](CC(=O)O)C(=O)N[C@@H](Cc2cccc(C)c2)C(=O)N[C@@H](Cc2ccc(C(=O)O)cc2)C(=O)N[C@@H](Cc2ccc(-c3ccccc3)cc2)C(=O)N[C@@H](Cc2ccc(C(=O)O)cc2)C(=O)N[C@@H](CCCN)C(=O)N[C@H](CC(C)C)C(=O)N[C@@H](CCN)C(=O)N[C@@H](CC2CCCCC2)C(=O)N[C@@H](C(C)C)C(=O)N[C@@H](CCC(=O)O)C(=O)N1)C(=O)O [Compound 1822] ({CH2CO}-[Nva]Y(Carboxymethyl)D[Phe(3-Me)][Phe(4-COOH)][Bip][Phe(4-COOH)][Orn][dL][Dab][Cha]VEC[Dab][Pra]-OH; thioether N-14)
3.7 nM | C#CCOc1ccc(C[C@@H]2NC(=O)[C@H](CN)NC(=O)CSC[C@@H](C(=O)N[C@@H](CCN)C(N)=O)NC(=O)[C@H](CCC(=O)O)NC(=O)[C@H](C(C)C)NC(=O)[C@H](CC3CCCCC3)NC(=O)[C@H](CCN)NC(=O)[C@@H](CC(C)C)NC(=O)[C@H](CCCN)NC(=O)[C@H](Cc3ccc(OCC(=O)O)cc3)NC(=O)[C@H](Cc3ccc(-c4ccccc4)cc3)NC(=O)[C@H](Cc3ccc(OCC(=O)O)cc3)NC(=O)[C@H](Cc3cccc(C)c3)NC(=O)[C@H](CC(=O)O)NC2=O)cc1 [Compound 1819] ({CH2CO}-[Dap]Y(Propargyl)D[Phe(3-Me)]Y(Carboxymethyl)[Bip]Y(Carboxymethyl)[Orn][dL][Dab][Cha]VEC[Dab]-NH2; thioether N-14)
3.6 nM | C#CCOc1ccc(C[C@@H]2NC(=O)CSC[C@@H](C(=O)N[C@@H](CCN)C(N)=O)NC(=O)[C@H](CCC(=O)O)NC(=O)[C@H](C(C)C)NC(=O)[C@H](CC3CCCCC3)NC(=O)[C@H](CCN)NC(=O)[C@@H](CC(C)C)NC(=O)[C@H](CCCN)NC(=O)[C@H](Cc3ccc(OCC(=O)O)cc3)NC(=O)[C@H](Cc3ccc(-c4ccccc4)cc3)NC(=O)[C@H](Cc3ccc(OCC(=O)O)cc3)NC(=O)[C@H](Cc3cccc(C)c3)NC(=O)[C@H](CC(=O)O)NC(=O)[C@H](Cc3ccc(OCC(=O)O)cc3)NC2=O)cc1 [Compound 1817] ({CH2CO}-Y(Propargyl)Y(Carboxymethyl)D[Phe(3-Me)]Y(Carboxymethyl)[Bip]Y(Carboxymethyl)[Orn][dL][Dab][Cha]VEC[Dab]-NH2; thioether N-14)
2.3 nM | C#CCOc1ccc(C[C@@H]2NC(=O)[C@H](Cc3cccc(C)c3)NC(=O)[C@H](CC(=O)O)NC(=O)[C@H](Cc3ccc(OCC(=O)O)cc3)NC(=O)[C@H](CCCNC(=N)N)NC(=O)CSC[C@@H](C(=O)N[C@@H](CCN)C(N)=O)NC(=O)[C@H](CCC(=O)O)NC(=O)[C@H](C(C)C)NC(=O)[C@H](CC3CCCCC3)NC(=O)[C@H](CCN)NC(=O)[C@@H](CC(C)C)NC(=O)[C@H](CCCN)NC(=O)[C@H](Cc3ccc(OCC(=O)O)cc3)NC(=O)[C@H](Cc3ccc(-c4ccccc4)cc3)NC2=O)cc1 [Compound 1818] ({CH2CO}-RY(Carboxymethyl)D[Phe(3-Me)]Y(Propargyl)[Bip]Y(Carboxymethyl)[Orn][dL][Dab][Cha]VEC[Dab]-NH2; thioether N-14)
